The source of these data is ChEMBL document CHEMBL1150248, “Halogenated derivatives QSAR model using spectral moments to predict haloacetic acids (HAA) mutagenicity” (Bioorg Med Chem, 2008).

Structures are written as SMILES.

The data set concerns Salmonella typhimurium. Kind of data set: Mutagenic activity in Salmonella Typhimurium TA100 without metabolic activation. Format: toxicity, organism-based. The following applies: salmonella enterica subsp. enterica serovar typhimurium.
`O=C(O)C(Cl)(Cl)Br` [BROMODICHLOROACETIC ACID]: the Activity entry is “Non-toxic”.
As to `O=C(O)C(Br)(Br)Br` [TRIBROMOACETIC ACID], the Activity entry is on record as “Non-toxic”.
The entry for `O=C(O)C(Cl)(Cl)Cl` [TRICHLOROACETIC ACID] is “Non-toxic”.
